target: Receptor-interacting serine/threonine-protein kinase 2 (Homo sapiens, UniProt O43353); assay: Inhibition of human RIPK2 incubated for 120 mins in presence of [gamma33P]ATP by scintillation counting based radiometry assay
Sequence (O43353 whole entry): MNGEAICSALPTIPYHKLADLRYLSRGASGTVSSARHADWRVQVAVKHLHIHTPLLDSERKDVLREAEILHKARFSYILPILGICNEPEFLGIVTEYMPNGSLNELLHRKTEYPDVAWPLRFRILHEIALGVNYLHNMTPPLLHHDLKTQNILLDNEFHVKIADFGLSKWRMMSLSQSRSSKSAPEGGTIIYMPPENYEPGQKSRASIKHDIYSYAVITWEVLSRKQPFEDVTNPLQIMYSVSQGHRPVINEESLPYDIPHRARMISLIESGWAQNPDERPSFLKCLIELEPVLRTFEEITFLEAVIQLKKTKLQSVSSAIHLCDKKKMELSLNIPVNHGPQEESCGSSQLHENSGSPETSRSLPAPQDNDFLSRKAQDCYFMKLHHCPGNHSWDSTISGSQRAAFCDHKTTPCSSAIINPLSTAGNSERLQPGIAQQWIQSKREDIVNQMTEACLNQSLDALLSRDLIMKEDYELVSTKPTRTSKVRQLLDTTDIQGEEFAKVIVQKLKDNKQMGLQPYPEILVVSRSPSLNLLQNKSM

Compound | IC50 [nM]
CCCC(=O)N[C@H]1CC[C@@H](n2cc(-c3ccc(OC)cc3)c3c(N)ncnc32)CC1 | 6
C=CCN[C@H]1CC[C@@H](n2cc(-c3ccc(OC)cc3)c3c(N)ncnc32)CC1 | 5.2
Cc1ccccc1-c1cn([C@H]2CC[C@@H](N)CC2)c2ncnc(N)c12 | 7.9
Nc1ncnc2c1c(-c1cccc(F)c1)cn2[C@H]1CC[C@@H](N)CC1 | 6.4
Nc1ncnc2c1c(-c1ccccc1)cn2[C@H]1CC[C@@H](N)CC1 | 9
COc1ccc(-c2cn([C@H]3CC[C@@H](NCc4cccc(OC(F)(F)F)c4)CC3)c3ncnc(N)c23)cc1 | 18.5
Nc1ncnc2c1c(-c1ccc(O)cc1)cn2[C@H]1CC[C@@H](N)CC1 | 6.3
COc1ccc(-c2cn([C@H]3CC[C@@H](NC(C)=O)CC3)c3ncnc(N)c23)cc1 | 11.7
COc1ccc(-c2cn([C@H]3CC[C@@H](NS(=O)(=O)C(F)(F)F)CC3)c3ncnc(N)c23)cc1 | 21.1
Nc1ncnc2c1c(-c1cccc(Cl)c1)cn2[C@H]1CC[C@@H](N)CC1 | 5.9
Nc1ccc(-c2cn([C@H]3CC[C@@H](N)CC3)c3ncnc(N)c23)cc1F | 4
COc1ccc(-c2cn([C@H]3CC[C@@H](NCC#N)CC3)c3ncnc(N)c23)cc1 | 6.7
CCC(=O)N[C@H]1CC[C@@H](n2cc(-c3ccc(OC)cc3)c3c(N)ncnc32)CC1 | 10.8
Nc1ncnc2c1c(-c1ccc(F)cc1)cn2[C@H]1CC[C@@H](N)CC1 | 1.6
COc1ccc(-c2cn([C@H]3CC[C@@H](NC(=O)C(C)Cl)CC3)c3ncnc(N)c23)cc1 (stereo partly specified) | 16.7
COc1ccc(-c2cn([C@H]3CC[C@@H](N)CC3)c3ncnc(N)c23)cc1 | 4.2
COc1ccc(-c2cn([C@H]3CC[C@@H](NCc4ccccc4)CC3)c3ncnc(N)c23)cc1 | 3
Nc1ncnc2c1c(-c1ccc3c(c1)OCO3)cn2[C@H]1CC[C@@H](N)CC1 | 0.8

test system: not listed separately; assay: Inhibition of LPS/MDP-stimulated TNFalpha production in C57BL/6J mouse BMDM cells by ELISA relative to control; assay type: functional, cell-based

Compound | IC50 [nM]
Nc1ncnc2c1c(-c1ccc(F)cc1)cn2[C@H]1CC[C@@H](N)CC1 | 1.7
COc1ccc(-c2cn([C@H]3CC[C@@H](N)CC3)c3ncnc(N)c23)cc1 | 3.8

target: T1, Receptor-interacting serine/threonine-protein kinase 1 (Homo sapiens) (UniProt Q13546); assay: Inhibition of human RIPK1 assessed as active kinase incubated for 120 mins in presence of [gamma33P]ATP at 1000 nM by scintillation counting based radiometry assay relative to control; design: scale not given: the % may be the effect or the level left
T1 sequence (whole entry): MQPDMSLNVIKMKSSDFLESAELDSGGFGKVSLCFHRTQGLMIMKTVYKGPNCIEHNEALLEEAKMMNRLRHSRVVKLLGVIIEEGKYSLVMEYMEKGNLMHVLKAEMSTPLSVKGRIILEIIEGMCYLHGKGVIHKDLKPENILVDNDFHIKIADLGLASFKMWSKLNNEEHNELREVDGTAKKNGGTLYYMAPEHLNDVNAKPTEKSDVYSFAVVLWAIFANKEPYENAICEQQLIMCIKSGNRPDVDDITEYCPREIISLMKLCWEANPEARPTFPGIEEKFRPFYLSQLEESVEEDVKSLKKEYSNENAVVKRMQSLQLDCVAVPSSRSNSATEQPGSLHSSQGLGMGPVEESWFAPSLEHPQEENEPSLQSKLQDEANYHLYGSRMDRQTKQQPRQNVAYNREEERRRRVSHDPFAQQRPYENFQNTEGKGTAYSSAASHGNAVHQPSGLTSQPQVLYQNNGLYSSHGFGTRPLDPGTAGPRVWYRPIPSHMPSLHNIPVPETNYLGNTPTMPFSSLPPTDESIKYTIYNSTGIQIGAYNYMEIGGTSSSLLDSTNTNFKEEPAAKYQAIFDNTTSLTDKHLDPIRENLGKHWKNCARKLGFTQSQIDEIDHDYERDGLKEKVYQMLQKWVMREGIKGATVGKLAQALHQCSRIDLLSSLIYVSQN

Compound | Activity [%]
CCCC(=O)N[C@H]1CC[C@@H](n2cc(-c3ccc(OC)cc3)c3c(N)ncnc32)CC1 | 72
C=CCN[C@H]1CC[C@@H](n2cc(-c3ccc(OC)cc3)c3c(N)ncnc32)CC1 | 85
Cc1ccccc1-c1cn([C@H]2CC[C@@H](N)CC2)c2ncnc(N)c12 | 99
Nc1ncnc2c1c(-c1cccc(F)c1)cn2[C@H]1CC[C@@H](N)CC1 | 115
Nc1ncnc2c1c(-c1ccccc1)cn2[C@H]1CC[C@@H](N)CC1 | 104
COc1ccc(-c2cn([C@H]3CC[C@@H](NCc4cccc(OC(F)(F)F)c4)CC3)c3ncnc(N)c23)cc1 | 105
Nc1ncnc2c1c(-c1ccc(O)cc1)cn2[C@H]1CC[C@@H](N)CC1 | 96
COc1ccc(-c2cn([C@H]3CC[C@@H](NC(C)=O)CC3)c3ncnc(N)c23)cc1 | 80
COc1ccc(-c2cn([C@H]3CC[C@@H](NS(=O)(=O)C(F)(F)F)CC3)c3ncnc(N)c23)cc1 | 73
Nc1ncnc2c1c(-c1cccc(Cl)c1)cn2[C@H]1CC[C@@H](N)CC1 | 116
Nc1ccc(-c2cn([C@H]3CC[C@@H](N)CC3)c3ncnc(N)c23)cc1F | 112
COc1ccc(-c2cn([C@H]3CC[C@@H](NCC#N)CC3)c3ncnc(N)c23)cc1 | 99
CCC(=O)N[C@H]1CC[C@@H](n2cc(-c3ccc(OC)cc3)c3c(N)ncnc32)CC1 | 77
Nc1ncnc2c1c(-c1ccc(F)cc1)cn2[C@H]1CC[C@@H](N)CC1 | 125
COc1ccc(-c2cn([C@H]3CC[C@@H](NC(=O)C(C)Cl)CC3)c3ncnc(N)c23)cc1 (stereo partly specified) | 82
COc1ccc(-c2cn([C@H]3CC[C@@H](N)CC3)c3ncnc(N)c23)cc1 | 97
COc1ccc(-c2cn([C@H]3CC[C@@H](NCc4ccccc4)CC3)c3ncnc(N)c23)cc1 | 94
Nc1ncnc2c1c(-c1ccc3c(c1)OCO3)cn2[C@H]1CC[C@@H](N)CC1 | 119

test system: not listed separately; assay: Inhibition of MDP-stimulated TNFalpha production in mouse RAW264.7 cells at 100 nM incubated for 22 hrs by ELISA relative to control; assay type: functional

Compound | inhibition at 0.1 µM [%]
CCCC(=O)N[C@H]1CC[C@@H](n2cc(-c3ccc(OC)cc3)c3c(N)ncnc32)CC1 | 31
C=CCN[C@H]1CC[C@@H](n2cc(-c3ccc(OC)cc3)c3c(N)ncnc32)CC1 | 76
Cc1ccccc1-c1cn([C@H]2CC[C@@H](N)CC2)c2ncnc(N)c12 | 88
Nc1ncnc2c1c(-c1cccc(F)c1)cn2[C@H]1CC[C@@H](N)CC1 | 71
Nc1ncnc2c1c(-c1ccccc1)cn2[C@H]1CC[C@@H](N)CC1 | 70
COc1ccc(-c2cn([C@H]3CC[C@@H](NCc4cccc(OC(F)(F)F)c4)CC3)c3ncnc(N)c23)cc1 | 54
Nc1ncnc2c1c(-c1ccc(O)cc1)cn2[C@H]1CC[C@@H](N)CC1 | 75
COc1ccc(-c2cn([C@H]3CC[C@@H](NC(C)=O)CC3)c3ncnc(N)c23)cc1 | 27
COc1ccc(-c2cn([C@H]3CC[C@@H](NS(=O)(=O)C(F)(F)F)CC3)c3ncnc(N)c23)cc1 | -2
Nc1ncnc2c1c(-c1cccc(Cl)c1)cn2[C@H]1CC[C@@H](N)CC1 | 84
Nc1ccc(-c2cn([C@H]3CC[C@@H](N)CC3)c3ncnc(N)c23)cc1F | 72
COc1ccc(-c2cn([C@H]3CC[C@@H](NCC#N)CC3)c3ncnc(N)c23)cc1 | 62
CCC(=O)N[C@H]1CC[C@@H](n2cc(-c3ccc(OC)cc3)c3c(N)ncnc32)CC1 | 53
Nc1ncnc2c1c(-c1ccc(F)cc1)cn2[C@H]1CC[C@@H](N)CC1 | 72
COc1ccc(-c2cn([C@H]3CC[C@@H](NC(=O)C(C)Cl)CC3)c3ncnc(N)c23)cc1 (stereo partly specified) | 51
COc1ccc(-c2cn([C@H]3CC[C@@H](N)CC3)c3ncnc(N)c23)cc1 | 69
COc1ccc(-c2cn([C@H]3CC[C@@H](NCc4ccccc4)CC3)c3ncnc(N)c23)cc1 | 76
Nc1ncnc2c1c(-c1ccc3c(c1)OCO3)cn2[C@H]1CC[C@@H](N)CC1 | 68

test system: not listed separately; assay: Metabolic stability in human liver microsomes assessed as half life at 1 uM by LC/MS/MS analysis; assay type: ADME, Microsome

Compound | half-life at 1 µM [h]
C=CCN[C@H]1CC[C@@H](n2cc(-c3ccc(OC)cc3)c3c(N)ncnc32)CC1 | 0.105
Cc1ccccc1-c1cn([C@H]2CC[C@@H](N)CC2)c2ncnc(N)c12 | > 2
Nc1ncnc2c1c(-c1cccc(F)c1)cn2[C@H]1CC[C@@H](N)CC1 | 1.78
Nc1ncnc2c1c(-c1ccccc1)cn2[C@H]1CC[C@@H](N)CC1 | 2.46
Nc1ncnc2c1c(-c1ccc(O)cc1)cn2[C@H]1CC[C@@H](N)CC1 | 2.22
Nc1ncnc2c1c(-c1cccc(Cl)c1)cn2[C@H]1CC[C@@H](N)CC1 | > 2
Nc1ccc(-c2cn([C@H]3CC[C@@H](N)CC3)c3ncnc(N)c23)cc1F | 1.16
COc1ccc(-c2cn([C@H]3CC[C@@H](NCC#N)CC3)c3ncnc(N)c23)cc1 | 0.045
Nc1ncnc2c1c(-c1ccc(F)cc1)cn2[C@H]1CC[C@@H](N)CC1 | > 2
COc1ccc(-c2cn([C@H]3CC[C@@H](N)CC3)c3ncnc(N)c23)cc1 | 1.8
COc1ccc(-c2cn([C@H]3CC[C@@H](NCc4ccccc4)CC3)c3ncnc(N)c23)cc1 | 0.0267
Nc1ncnc2c1c(-c1ccc3c(c1)OCO3)cn2[C@H]1CC[C@@H](N)CC1 | > 2

target: Receptor-type tyrosine-protein kinase FLT3 (Homo sapiens) (UniProt P36888); assay: Inhibition of human Flt3 using EAIYAAPFAKKK peptide substrate assessed as active kinase incubated for 40 mins in presence of [gamma33P]ATP at 1000 nM by scintillation counting based radiometry assay relative to control; design: scale not given: the % may be the effect or the level left
Sequence (P36888 whole entry): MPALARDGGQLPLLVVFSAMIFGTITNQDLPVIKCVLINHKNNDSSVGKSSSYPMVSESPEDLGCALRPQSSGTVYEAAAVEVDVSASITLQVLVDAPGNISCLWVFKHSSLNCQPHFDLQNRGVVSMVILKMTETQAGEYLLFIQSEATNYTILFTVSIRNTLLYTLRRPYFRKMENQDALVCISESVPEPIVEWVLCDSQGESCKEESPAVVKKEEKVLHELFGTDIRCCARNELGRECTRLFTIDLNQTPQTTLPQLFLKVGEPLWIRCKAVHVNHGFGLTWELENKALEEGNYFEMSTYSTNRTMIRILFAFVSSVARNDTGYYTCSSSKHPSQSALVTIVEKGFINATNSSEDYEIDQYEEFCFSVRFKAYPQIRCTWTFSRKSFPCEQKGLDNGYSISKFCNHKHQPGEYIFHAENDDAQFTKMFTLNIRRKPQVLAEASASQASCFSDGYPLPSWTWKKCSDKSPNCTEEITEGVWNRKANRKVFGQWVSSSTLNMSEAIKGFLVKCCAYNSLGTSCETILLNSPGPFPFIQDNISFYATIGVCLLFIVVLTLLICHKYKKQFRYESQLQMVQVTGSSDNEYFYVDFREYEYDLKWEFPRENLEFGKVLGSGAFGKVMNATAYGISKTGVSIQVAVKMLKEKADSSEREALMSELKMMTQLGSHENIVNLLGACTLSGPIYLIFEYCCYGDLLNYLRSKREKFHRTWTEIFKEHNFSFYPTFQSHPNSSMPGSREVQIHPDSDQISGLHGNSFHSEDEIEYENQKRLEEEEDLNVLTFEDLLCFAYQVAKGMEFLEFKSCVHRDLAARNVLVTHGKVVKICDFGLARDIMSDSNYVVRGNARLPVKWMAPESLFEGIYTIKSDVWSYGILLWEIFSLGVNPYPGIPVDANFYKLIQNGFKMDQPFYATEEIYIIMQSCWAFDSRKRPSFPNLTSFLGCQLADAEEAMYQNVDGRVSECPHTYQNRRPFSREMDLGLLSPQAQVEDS

Compound | Activity [%]
CCCC(=O)N[C@H]1CC[C@@H](n2cc(-c3ccc(OC)cc3)c3c(N)ncnc32)CC1 | 49
C=CCN[C@H]1CC[C@@H](n2cc(-c3ccc(OC)cc3)c3c(N)ncnc32)CC1 | 58
COc1ccc(-c2cn([C@H]3CC[C@@H](NCc4cccc(OC(F)(F)F)c4)CC3)c3ncnc(N)c23)cc1 | 86
COc1ccc(-c2cn([C@H]3CC[C@@H](NC(C)=O)CC3)c3ncnc(N)c23)cc1 | 57
COc1ccc(-c2cn([C@H]3CC[C@@H](NS(=O)(=O)C(F)(F)F)CC3)c3ncnc(N)c23)cc1 | 55
COc1ccc(-c2cn([C@H]3CC[C@@H](NCC#N)CC3)c3ncnc(N)c23)cc1 | 46
CCC(=O)N[C@H]1CC[C@@H](n2cc(-c3ccc(OC)cc3)c3c(N)ncnc32)CC1 | 54
COc1ccc(-c2cn([C@H]3CC[C@@H](NC(=O)C(C)Cl)CC3)c3ncnc(N)c23)cc1 (stereo partly specified) | 63
COc1ccc(-c2cn([C@H]3CC[C@@H](N)CC3)c3ncnc(N)c23)cc1 | 68
COc1ccc(-c2cn([C@H]3CC[C@@H](NCc4ccccc4)CC3)c3ncnc(N)c23)cc1 | 70

test system: not listed separately; assay: Toxicity in rat H9c2 cells assessed as inhibitory rate at 10 uM relative to control; assay type: cell-based

Compound | inhibition at 10 µM [%]
Cc1ccccc1-c1cn([C@H]2CC[C@@H](N)CC2)c2ncnc(N)c12 | 54
Nc1ncnc2c1c(-c1cccc(F)c1)cn2[C@H]1CC[C@@H](N)CC1 | 50
Nc1ncnc2c1c(-c1ccccc1)cn2[C@H]1CC[C@@H](N)CC1 | 44
Nc1ncnc2c1c(-c1ccc(O)cc1)cn2[C@H]1CC[C@@H](N)CC1 | 61
Nc1ncnc2c1c(-c1cccc(Cl)c1)cn2[C@H]1CC[C@@H](N)CC1 | 98
Nc1ccc(-c2cn([C@H]3CC[C@@H](N)CC3)c3ncnc(N)c23)cc1F | 82
Nc1ncnc2c1c(-c1ccc(F)cc1)cn2[C@H]1CC[C@@H](N)CC1 | 35
Nc1ncnc2c1c(-c1ccc3c(c1)OCO3)cn2[C@H]1CC[C@@H](N)CC1 | 64
